Source: patent publication US9540392B2, “Thienopyrimidines” (BAYER PHARMA AKTIENGESELLSCHAFT, priority 2012, dated 2017)

Molecular target: T1, human full-length MKNK1 (Homo sapiens, UniProt Q9BUB5, T385D)
T1 construct: GST (N); purchased Carna Biosciences 02-145; host or cells: insect cells (baculovirus expression system)
Assay: MKNK1 kinase high ATP assay (TR-FRET)
Assay type: biochemical
Settings: 2 mM ATP, after preincubation with MKNK1; read-out: MKNK1 IC50 (MKNK1 high ATP)
Protocol: MKNK1-inhibitory activity at high ATP of compounds of the present invention after their preincubation with MKNK1 was quantified employing the TR-FRET-based MKNK1 high ATP assay as described in the following paragraphs.
As substrate for the kinase reaction the biotinylated peptide biotin-Ahx-[…] (C-terminus in amide form) was used, which can be purchased e.g. from the company Biosyntan (Berlin-Buch, Germany).
For the assay 50 nL of a 100 fold concentrated solution of the test compound in DMSO was pipetted into a black low volume 384 well microtiter plate (Greiner Bio-One, Frickenhausen, Germany), 2 μL of a solution of MKNK1 in aqueous assay buffer [50 mM HEPES pH 7.5, 5 mM MgCl2, 1.0 mM dithiothreitol, 0.005% (v/v) Nonidet-P40 (Sigma)] was added and the mixture was incubated for 15 min at 22° C. to allow pre-binding of the test compounds to the enzyme before the start of the kinase reaction. Then the kinase reaction was started by the addition of 3 μL of a solution of adenosine-tri-phosphate (ATP, 3.3 mM=>final conc. in the 5 μL assay volume is 2 mM) and substrate (0.1 μM=>final conc. in the 5 μL assay volume is 0.06 μM) in assay buffer and the resulting mixture was incubated for a reaction time of 30 min at 22° C. The concentration of MKNK1 was adjusted depending of the activity of the enzyme lot and was chosen appropriate to have the assay in the linear range, typical concentrations were in the range of 0.003 μg/mL. The reaction was stopped by the addition of 5 μL of a solution of TR-FRET detection reagents (5 nM streptavidine-XL665 [Cisbio Bioassays, Codolet, France] and 1 nM anti-ribosomal protein S6 (pSer236)-antibody from Invitrogen [#44921G] and 1 nM LANCE EU-W1024 Labeled ProteinG [Perkin-Elmer, product no. AD0071]) in an aqueous EDTA-solution (100 mM EDTA, 0.1% (w/v) bovine serum albumin in 50 mM HEPES pH 7.5).
The resulting mixture was incubated for 1 h at 22° C. to allow the formation of complex between the phosphorylated biotinylated peptide and the detection reagents. Subsequently the amount of phosphorylated substrate was evaluated by measurement of the resonance energy transfer from the Eu-chelate to the streptavidine-XL. Therefore, the fluorescence emissions at 620 nm and 665 nm after excitation at 350 nm were measured in a TR-FRET reader, e.g. a Rubystar (BMG Labtechnologies, Offenburg, Germany) or a Viewlux (Perkin-Elmer). The ratio of the emissions at 665 nm and at 622 nm was taken as the measure for the amount of phosphorylated substrate.

T1 sequence (Q9BUB5 1-424 isoform Q9BUB5-2 T344D): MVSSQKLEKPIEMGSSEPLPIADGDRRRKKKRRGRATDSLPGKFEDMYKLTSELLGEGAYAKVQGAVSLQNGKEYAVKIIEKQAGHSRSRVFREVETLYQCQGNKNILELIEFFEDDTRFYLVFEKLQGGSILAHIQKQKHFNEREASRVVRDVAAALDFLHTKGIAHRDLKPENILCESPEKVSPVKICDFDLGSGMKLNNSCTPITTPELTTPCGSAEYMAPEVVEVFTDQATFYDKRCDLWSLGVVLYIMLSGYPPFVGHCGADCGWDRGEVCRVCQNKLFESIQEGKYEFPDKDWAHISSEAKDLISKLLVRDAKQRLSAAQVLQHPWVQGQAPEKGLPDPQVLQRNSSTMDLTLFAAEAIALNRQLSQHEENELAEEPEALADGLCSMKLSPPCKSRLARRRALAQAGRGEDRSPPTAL

| SMILES | IC50 [nM] |
| --- | --- |
| O=C(C1CCc2c(sc3ncnc(Nc4ccc5[nH]ncc5c4)c23)C1)N1CCN(Cc2ccccc2)CC1 (racemic) [Example 86, (RS)-(4-benzylpiperazin-1-yl)[4-(1H-indazol-5-ylamino)-5,6,7,8-tetrahydro[1]benzothieno[2,3-d]pyrimidin-7-yl]methanone] | 14.9 |
| COc1cc2[nH]ncc2cc1Nc1ncnc2sc3c(c12)CCC(C(=O)N1CCCC1)C3 (racemic) [Example 183, (RS)-{4-[(6-Methoxy-1H-indazol-5-yl)amino]-5,6,7,8-tetrahydro[1]benzothieno[2,3-d]pyrimidin-7-yl}(pyrrolidin-1-yl)methanone] | 3.2 |
| O=C(NCCN1CCNC1=O)C1CCc2c(sc3ncnc(Nc4ccc5[nH]ncc5c4)c23)C1 (racemic) [Example 125, (RS)-4-(1H-indazol-5-ylamino)-N-[2-(2-oxoimidazolidin-1-yl)ethyl]-5,6,7,8-tetrahydro[1]benzothieno[2,3-d]pyrimidine-7-carboxamide] | 10.5 |
| COc1cc2[nH]ncc2cc1Nc1ncnc2sc3c(c12)CCC(C(=O)N1CCCCC1)C3 (racemic) [Example 176, (RS)-{4-[(6-Methoxy-1H-indazol-5-yl)amino]-5,6,7,8-tetrahydro[1]benzothieno[2,3-d]pyrimidin-7-yl}(piperidin-1-yl)methanone] | 0.5 |
| O=C(C1CCc2c(sc3ncnc(Nc4ccc5[nH]ncc5c4)c23)C1)N1CCS(=O)(=O)CC1 (racemic) [Example 188, (RS)-(1,1-dioxidothiomorpholin-4-yl)[4-(1H-indazol-5-ylamino)-5,6,7,8-tetrahydro[1]benzothieno[2,3-d]pyrimidin-7-yl]methanone] | 22.6 |
| CCOc1cc2[nH]ncc2cc1Nc1ncnc2sc3c(c12)CCC(C(=O)N(C)CCO)C3 (racemic) [Example 225, (RS)-4-[(6-Ethoxy-1H-indazol-5-yl)amino]-N-(2-hydroxyethyl)-N-methyl-5,6,7,8-tetrahydro[1]benzothieno[2,3-d]pyrimidine-7-carboxamide] | 0.3 |
| COc1cc2[nH]ncc2cc1Nc1ncnc2sc3c(c12)CCC(C(=O)N1CCC1)C3 (racemic) [Example 177, (RS)-Azetidin-1-yl{4-[(6-methoxy-1H-indazol-5-yl)amino]-5,6,7,8-tetrahydro[1]benzothieno[2,3-d]pyrimidin-7-yl}methanone] | 0.4 |
| COc1cc2[nH]ncc2cc1Nc1ncnc2sc3c(c12)CCC(C(=O)N(C)C(C)C)C3 (racemic) [Example 173, (RS)—N—Isopropyl-4-[(6-methoxy-1H-indazol-5-yl)amino]-N-methyl-5,6,7,8-tetrahydro[1]benzothieno[2,3-d]pyrimidine-7-carboxamide] | 0.5 |
| CCOc1cc2[nH]ncc2cc1Nc1ncnc2sc3c(c12)CCC(C(=O)N(CC)CCC#N)C3 (racemic) [Example 242, (RS)—N-(2-Cyanoethyl)-4-[(6-ethoxy-1H-indazol-5-yl)amino]-N-ethyl-5,6,7,8-tetrahydro[1]benzothieno[2,3-d]pyrimidine-7-carboxamide] | 0.3 |
| CC(C)Oc1cc2[nH]ncc2cc1Nc1ncnc2sc3c(c12)CCC(C(=O)O)C3 (racemic) [Example 69, (RS)-4-{[6-(Propan-2-yloxy)-1H-indazol-5-yl]amino}-5,6,7,8-tetrahydro[1]benzothieno[2,3-d]pyrimidine-7-carboxylic acid] | 3.9 |
| O=C(CN1CCN(C(=O)C2CCc3c(sc4ncnc(Nc5ccc6[nH]ncc6c5)c34)C2)CC1)NC1CC1 (racemic) [Example 166, (RS)-N-cyclopropyl-2-(4-{[4-(1H-indazol-5-ylamino)-5,6,7,8-tetrahydro[1]benzothieno[2,3-d]pyrimidin-7-yl]carbonyl}piperazin-1-yl)acetamide] | 15.3 |
| CCOC(=O)C1CCc2c(sc3ncnc(Nc4ccc5[nH]ncc5c4C)c23)C1 (racemic) [Example 60, (RS)-Ethyl 4-[(4-methyl-1H-indazol-5-yl)amino]-5,6,7,8-tetrahydro[1]benzothieno[2,3-d]pyrimidine-7-carboxylate] | 2180 |
| COc1cc2[nH]ncc2cc1Nc1ncnc2sc3c(c12)CCC(C(=O)N1CC2CC1CO2)C3 (mixture of isomers) [Example 262, {(7RS)-4-[(6-Methoxy-1H-indazol-5-yl)amino]-5,6,7,8-tetrahydro[1]benzothieno[2,3-d]pyrimidin-7-yl}[(1S,4S)-2-oxa-5-azabicyclo[2.2.1]hept-5-yl]methanone] | 6.1 |
| O=C(Nc1ccccn1)C1CCc2c(sc3ncnc(Nc4ccc5[nH]ncc5c4)c23)C1 (racemic) [Example 99, (RS)-4-(1H-indazol-5-ylamino)-N-(pyridin-2-yl)-5,6,7,8-tetrahydro[1]benzothieno[2,3-d]pyrimidine-7-carboxamide] | 27.7 |
| O=C(C1CCc2c(sc3ncnc(Nc4ccc5[nH]ncc5c4)c23)C1)N1CCN(c2ccccn2)CC1 (racemic) [Example 87, (RS)-[4-(1H-indazol-5-ylamino)-5,6,7,8-tetrahydro[1]benzothieno[2,3-d]pyrimidin-7-yl][4-(pyridin-2-yl)piperazin-1-yl]methanone] | 20.6 |
| COCCN1CCN(C(=O)C2CCc3c(sc4ncnc(Nc5ccc6[nH]ncc6c5)c34)C2)CC1 (racemic) [Example 133, (RS)-[4-(1H-indazol-5-ylamino)-5,6,7,8-tetrahydro[1]benzothieno[2,3-d]pyrimidin-7-yl][4-(2-methoxyethyl)piperazin-1-yl]methanone] | 21.4 |
| CCOC(=O)N1CCN(C(=O)C2CCc3c(sc4ncnc(Nc5ccc6[nH]ncc6c5)c34)C2)CC1 (racemic) [Example 103, (RS)-ethyl4-{[4-(1H-indazol-5-ylamino)-5,6,7,8-tetrahydro[1]benzothieno[2,3-d]pyrimidin-7-yl]carbonyl}piperazine-1-carboxylate] | 16.4 |
| O=C(C1CCc2c(sc3ncnc(Nc4ccc5[nH]ncc5c4)c23)C1)N1CCN2CCCCC2C1 (racemic) [Example 192, (RS)-[4-(1H-indazol-5-ylamino)-5,6,7,8-tetrahydro[1]benzothieno[2,3-d]pyrimidin-7-yl](octahydro-2H-pyrido[1,2-a]pyrazin-2-yl)methanone] | 15.1 |
| COCCN(CCOC)C(=O)C1CCc2c(sc3ncnc(Nc4ccc5[nH]ncc5c4)c23)C1 (racemic) [Example 107, (RS)-4-(1H-indazol-5-ylamino)-N,N-bis(2-methoxyethyl)-5,6,7,8-tetrahydro[1]benzothieno[2,3-d]pyrimidine-7-carboxamide] | 8.1 |
| O=C(NC1CC1)C1CCc2c(sc3ncnc(Nc4ccc5[nH]ncc5c4)c23)C1 (stereo not shown) [Example 44, N-Cyclopropyl-4-(1H-indazol-5-ylamino)-5,6,7,8-tetrahydro[1] benzothieno [2,3-d]pyrimidine-7-carboxamide] | 9 |
| CN1CCCN(C(=O)C2CCc3c(sc4ncnc(Nc5ccc6[nH]ncc6c5)c34)C2)CC1 (racemic) [Example 118, (RS)-[4-(1H-indazol-5-ylamino)-5,6,7,8-tetrahydro[1]benzothieno[2,3-d]pyrimidin-7-yl](4-methyl-1,4-diazepan-1-yl)methanone] | 13.2 |
| O=C(NCc1cc[nH]n1)C1CCc2c(sc3ncnc(Nc4ccc5[nH]ncc5c4)c23)C1 (racemic) [Example 139, (RS)-4-(1H-indazol-5-ylamino)-N-(1H-pyrazol-3-ylmethyl)-5,6,7,8-tetrahydro[1]benzothieno[2,3-d]pyrimidine-7-carboxamide] | 6.9 |
| O=C(NCCc1ccccc1)C1CCc2c(sc3ncnc(Nc4ccc5[nH]ncc5c4)c23)C1 (stereo not shown) [Example 37, 4-(1H-Indazol-5-ylamino)-N-(2-phenylethyl)-5,6,7,8-tetrahydro[1] benzothieno [2,3-d]pyrimidine-7-carboxamide] | 6 |
| COc1ccc(NC(=O)C2CCc3c(sc4ncnc(Nc5ccc6[nH]ncc6c5)c34)C2)cc1 (stereo not shown) [Example 14, 4-(1H-indazol-5-ylamino)-N-(4-methoxyphenyl)-5,6,7,8-tetrahydro[1]benzothieno[2,3-d]pyrimidine-7-carboxamide] | 7 |
| O=C(NCc1cccnc1)C1CCc2c(sc3ncnc(Nc4ccc5[nH]ncc5c4)c23)C1 (stereo not shown) [Example 32, 4-(1H-Indazol-5-ylamino)-N-(pyridin-3-ylmethyl)-5,6,7,8-tetrahydro[1] benzothieno [2,3-d]pyrimidine-7-carboxamide] | 5 |
